Columns and labels:
[1] = system: Drak2; assay: Drak2 protein levels in siRNA-transfected NIT-1 insulinoma cells by flow cytometry; assay type: cell-based, mouse; conditions: NIT-1 cells; for Drak2 protein upregulation stimulated by cytokines: 24 h (FIG. 10B); for Drak2 protein upregulation stimulated by FFA: siRNA transfected, cultured 24 h with FFA, intracellular Drak2 by flow cytometry (FIG. 2A)
From the text: (§1) Drak2 Tg and WT islets were digested with 0.05% trypsin-EDTA to obtain single cell suspensions. The cells were fixed with 4% paraformaldehyde and permeabilized with 0.2% Triton X-100. They were stained with rabbit anti-Drak2 Ab (Abgent, San Diego, Calif.; 1:50 dilution) and anti-insulin mAb (Sigma, St. Louis, Mo.; 1:500 dilution). Subsequently, they were stained with FITC-conjugated sheep anti-rabbit antibody (Chemicon, Temecula, Calif.), and PE-conjugated goat anti-mouse antibody (Jackson Immunoresearch, West Grove, Pa.), and analyzed by 2-color flow cytometry. Dispersed islet cells or small interfering RNA (siRNA)-transfected NIT-1 cells were also analyzed for apoptosis by flow cytometry using FITC-annexin V staining (Murakami et al., 2004).
(§2) NIT-1 cells, derived from mouse insulinoma, were transfected with siRNA using Lipofectamine 2000 (Invitrogen, Burlington, Ontario) according to the manufacturer's instructions. For Drak2 siRNA, the oligonucleotide RNA sequences were CAUCCCUGAAGAUGGCAGCtt and GCUGCCAUCUUCAGGGAUGtt. The control was the scrambled sequence of said siRNA with following sequences: 5′CCCUAAGUGUAGGACGCACtt and 3′GUGCGUCCUACACUUAGGGtt. Single stranded RNA pairs were annealed by being incubated for 1 min at 900 C, and then cooled down to room temperature over 45 min. The final concentration of double-stranded siRNA was 20 μM for transfection.
(§3) Dispersed islet cells were fixed with 4% paraformaldehyde and permeabilized with 0.2% Triton X-100. For Drak2 and insulin detection, the cells were stained as described for confocal microscopy, and analyzed by 2-color flow cytometry. Dispersed islet cells or small interfering RNA (siRNA)-transfected NIT-1 cells were also analyzed for apoptosis by flow cytometry with FITC-annexin V staining (Murakami et al., 2004)).
(§4) NIT-1 cells, derived from mouse insulinoma, were transfected with siRNA using Lipofectamine 2000 (Invitrogen, Burlington, Ontario) according to the manufacturer's instructions. Two siRNAs specific for Drak2 were employed. For Drak2 siRNA #1162, the oligonucleotide RNA sequences were CAUCCCUGAAGAUGGCAGCtt and GCUGCCAUCUUCAGGGAUGtt. For Drak2 siRNA #592, the oligonucleotide RNA sequences were UAACAUUGUUCACCUUGAUtt and AUCAAGGUGAACAAUGUUAtt. The control siRNA was the scrambled sequence of siRNA #1162 with the following sequences: 5′CCCUAAGUGUAGGACGCACtt and 3′GUGCGUCCUACACUUAGGGtt. Single-stranded RNA pairs were annealed by incubation for 1 min at 900 C, and then cooled down to room temperature over 45 min. The final concentration of double-stranded siRNA was 10 nM for transfection.

[2] = system: p70S6 kinase; assay: p70S6 kinase phosphorylation in NIT-1 cell lysates by immunoblotting; assay type: cell-based, mouse; conditions: NIT-1 cells, IFN-γ plus IL-1β or TNF-α plus IL-1β, siRNA transfected after 24 h, immunoblot after additional 24 h (FIG. 15B, 15C)
Method: NIT-1 cells were transiently transfected with pCEP4-HA-Drak2 or empty vector pCEP4-HA. After 48 h, the cells were lysed and resolved in 10% SDS-PAGE (60 μg/lane) followed by immunoblotting. For HA-Drak2 expression, membrane was blotted with mouse anti-HA mAb (Santa Cruz, Santa Cruz, Calif.; 1:1000 dilution) followed by horse radish peroxidase (HRP)-conjugated sheep anti-mouse IgG (GE Health; 1:2000 dilution). To assess p70S6 kinase phosphorylation, the membrane was blotted with mouse anti-phospho-p70S6 kinase (Thr389) Ab (Cell Signaling, Danvers, Mass.; 1:1000 dilution) followed by HRP-conjugated sheep anti-mouse IgG (GE Health; 1:2000 dilution). The membrane was also blotted with rabbit anti-p70S6 kinase Ab (Cell Signaling, Danvers, Mass.; 1:1000 dilution) followed by HRP-conjugated donkey anti-rabbit IgG to show similar total p70S6 kinase protein. In some experiments, NIT-1 cells were stimulated with IFN-γ (1000 U/ml) plus IL-1β (0.5 ng/ml), or TNF-α (200 ng/ml) plus IL-1β (0.5 ng/ml). Twenty four hours later, they were transfected with two different Drak2 siRNAs (#592 and #1162), or with a control siRNA. After additional 24 hour, phospho-p70S6 kinase and total p70S6 kinase in the cell lysates were detected by immunoblotting as described above.

[3] = system: NIT-1 cells; assay: Apoptosis of NIT-1 cells by annexin V staining and flow cytometry; assay type: cell-based, mouse; conditions: for FFA-induced apoptosis (annexin V): cultured 24 h with FFA (FIG. 2B)
From the text: as §1, §2, §3, §4
NIT-1 cells were treated with IFN-g+IL-1b for 72 hours, with or without […] rapamycin. Drak2 siRNA were transfected to some cells at 24 hour, the apoptosis of cells were measured with Annexin-v staining.

[4] = system: human islets; assay: Inflammatory cytokine-induced apoptosis of human islets, annexin V flow cytometry; assay type: cell-based; conditions: TNF-a, IFN-g and IL1-b, 72 h (FIG. 19)
Method: FIG. 19—Drak2 siRNA (designed based on the mouse Drak2 sequence) effectively protects human islets from inflammatory cytokine-induced apoptosis. Human islets were treated with cytokines (IFN-γ (1000 U/ml), IL-1β (0.5 ng/ml), TNF-α (200 ng/ml), 24 h later, they were transfected with a combination of 2 Drak2 siRNA (#592 and #1162, 10 nM each). At 72 h, the islets were harvested, dispersed and tested for annexin V expression by flow cytometry. The percentage of apoptotic cells (annexin V positive) is shown.
as §3

[5] = IFN-γ plus IL-1β or TNF-α plus IL-1β

| Substance | Drak2 protein upregulation stimulated by cytokines [1, 5] | Drak2 protein upregulation stimulated by FFA [1] | cytokine-induced p70S6 kinase phosphorylation (phospho versus total p70S6 kinase) [2] | FFA-induced apoptosis (annexin V) ([3]; siRNA transfected) | cytokine-induced Drak2 protein expression ([1]; IFN-γ plus IL-1β or TNF-α plus IL-1β, siRNA transfected after 24 h, assayed at 48 h (FIG. 15A)) | effect on cytokine-induced apoptosis of human islets [4] | apoptosis induced by IFN-γ+IL-1β (annexin V) ([3]; 72 h, rapamycin 250 nM, Drak2 siRNA transfected at 24 h, alone or combined (FIG. 18)) | cytokine-induced apoptosis (annexin V) ([3]; siRNA transfected, IFN-γ plus IL-1β or TNF-α plus IL-1β, 24 h (FIG. 10C)) |
| --- | --- | --- | --- | --- | --- | --- | --- | --- |
| #1162: Drak2 siRNA; oligonucleotide RNA sequences CAUCCCUGAAGAUGGCAGCtt and GCUGCCAUCUUCAGGGAUGtt (SEQ ID Nos: 5 and 6) | prevented Drak2 protein upregulation | inhibited Drak2 protein upregulation | inhibited p70S6 kinase phosphorylation | prevented FFA-induced apoptosis |  |  |  |  |
| #592: Drak2 siRNA; oligonucleotide RNA sequences UAACAUUGUUCACCUUGAUtt and AUCAAGGUGAACAAUGUUAtt (SEQ ID Nos:7 and 8) (chain 1 UAACAUUGUUCACCUUGAUTT; chain 2 AUCAAGGUGAACAAUGUUATT; chemistry not fully specified) |  | inhibited Drak2 protein upregulation | inhibited p70S6 kinase phosphorylation | prevented FFA-induced apoptosis |  |  |  |  |
| control siRNA: scrambled sequence of siRNA #1162: 5′CCCUAAGUGUAGGACGCACtt and 3′GUGCGUCCUACACUUAGGGtt (SEQ ID Nos: 9 and 10) (chain 1 CCCUAAGUGUAGGACGCACTT; chain 2 GUGCGUCCUACACUUAGGGTT; RNA strands with 3' tt overhangs, overhang chemistry not given here, further chemistry not given here) [reference compound] | no effect | no effect | no effect |  | no effect | no effect |  |  |
| Drak2 siRNA: Drak2 siRNA without number; Example 4 sequences CAUCCCUGAAGAUGGCAGCtt and GCUGCCAUCUUCAGGGAUGtt, the same as #1162 (GCUGCCAUCUUCAGGGAUGTT; RNA strands with 3' tt overhangs, overhang chemistry not given here, further chemistry not given here) |  |  |  |  |  |  | reduce apoptosis | dampened |
